This note sets out measurements from US20240270762A1, “PENICILLIN-BINDING PROTEIN INHIBITORS” (priority 2021, published 2024).

Assay [1] concerns P. aeruginosa CDC-0095. The experiment in a line: microbe, parasite or virus in culture. The class given is cell-based. The conditions noted are these: Pseudomonas aeruginosa, CDC0095, read-out: Minimum inhibitory concentration, P. aeruginosa CDC-0095.
Assay [2] deals with A. baumannii 1258916. The experiment in a line: microbe, parasite or virus in culture. The class given is cell-based, Acinetobacter baumannii. The conditions noted are these: Acinetobacter baumannii, 1258916, read-out: MIC, A. baumannii 1258916.
Assay [3] concerns A. baumannii CDC-0083. As to the kind of experiment: microbe, parasite or virus in culture. The class given is cell-based. To be noted: Acinetobacter baumannii, CDC0083, read-out: MIC, A. baumannii CDC-0083.
Assay [4] concerns P. aeruginosa ATCC 35151. The experiment in a line: microbe, parasite or virus in culture. The class given is cell-based. The conditions noted are these: Pseudomonas aeruginosa, ATCC35151, read-out: Minimum inhibitory concentration, P. aeruginosa ATCC 35151.
The subject of assay [5] is P. aeruginosa CDC-0054. As to the kind of experiment: microbe, parasite or virus in culture. Type of assay: cell-based. To be noted: Pseudomonas aeruginosa, CDC0054, read-out: Minimum inhibitory concentration, P. aeruginosa CDC-0054.
The test system of assay [6] is P. aeruginosa CDC-0090. The experiment in a line: microbe, parasite or virus in culture. Type of assay: cell-based. The conditions noted are these: Pseudomonas aeruginosa, CDC0090, read-out: Minimum inhibitory concentration, P. aeruginosa CDC-0090.
In assay [7] the test system is A. baumannii CDC-0033. The experiment in a line: microbe, parasite or virus in culture. The class given is cell-based. The conditions noted are these: Acinetobacter baumannii, CDC0033, read-out: MIC, A. baumannii CDC-0033.
Assay [8] concerns B. humptydooensis ATCC BAA-2767. The experiment in a line: microbe, parasite or virus in culture. Type of assay: cell-based. To be noted: Burkholderia humptydooensis, ATCCBAA2767, read-out: Minimum inhibitory concentration (MIC), B. humptydooensis ATCC BAA-2767.
Assay [9] has as its system B. thailandensis ATCC 700388. As to the kind of experiment: microbe, parasite or virus in culture. Type of assay: cell-based. To be noted: Burkholderia thailandensis, ATCC700388, read-out: Minimum inhibitory concentration (MIC), B. thailandensis ATCC 700388.
Assay [10] relates to P. aeruginosa ATCC 27853. The experiment in a line: microbe, parasite or virus in culture. The conditions noted are these: Pseudomonas aeruginosa, ATCC27853, read-out: Minimum inhibitory concentration, P. aeruginosa ATCC 27853. Type of assay: cell-based.
The test system of assay [11] is A. baumannii CDC-0036. As to the kind of experiment: microbe, parasite or virus in culture. The class given is cell-based. To be noted: Acinetobacter baumannii, CDC0036, read-out: MIC, A. baumannii CDC-0036.
In assay [12] the test system is A. baumannii ATCC 19606. As to the kind of experiment: microbe, parasite or virus in culture. The conditions noted are these: Acinetobacter baumannii, ATCC19606, read-out: MIC, A. baumannii ATCC 19606. The class given is cell-based.
Assay [13] concerns A. baumannii ATCC 17978. As to the kind of experiment: microbe, parasite or virus in culture. Type of assay: cell-based. The conditions noted are these: Acinetobacter baumannii, ATCC17978, read-out: MIC, A. baumannii ATCC 17978.
The subject of assay [14] is P. aeruginosa (ΔmexAB-oprM). The experiment in a line: Broth microdilution MIC in iron-depleted CAMHB (IDM). Type of assay: cell-based. To be noted: Pseudomonas aeruginosa; iron-depleted CAMHB (IDM); […]; read-out: Minimum inhibitory concentration, P. aeruginosa ΔmexAB-oprM.
In assay [15] the test system is A. baumannii CDC-0045. As to the kind of experiment: microbe, parasite or virus in culture. Type of assay: cell-based. The conditions noted are these: Acinetobacter baumannii, CDC0045, read-out: MIC, A. baumannii CDC-0045.
For assay [16], the target named is A. baumannii PBP2 (Acinetobacter baumannii, UniProt D0C8Z9). The experiment in a line: Bocillin-FL competition binding via gel filtration, A. baumannii PBP2. Summed up:
(§1)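 Enzyme pre-incubated with increasing inhibitor concentrations, then Bocillin-FL added for 15 min further incubation. Bocillin-FL-bound PBP separated by gel filtration and fluorescence read. EC50 from fitting fraction PBP bound vs inhibitor concentration to a Hill-type equation (ymin, ymax, n).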

Assay [17] deals with T1, A. baumannii PBP1a (Acinetobacter baumannii, UniProt A0ABX6CK30).
T1 sequence (A0ABX6CK30 1-851): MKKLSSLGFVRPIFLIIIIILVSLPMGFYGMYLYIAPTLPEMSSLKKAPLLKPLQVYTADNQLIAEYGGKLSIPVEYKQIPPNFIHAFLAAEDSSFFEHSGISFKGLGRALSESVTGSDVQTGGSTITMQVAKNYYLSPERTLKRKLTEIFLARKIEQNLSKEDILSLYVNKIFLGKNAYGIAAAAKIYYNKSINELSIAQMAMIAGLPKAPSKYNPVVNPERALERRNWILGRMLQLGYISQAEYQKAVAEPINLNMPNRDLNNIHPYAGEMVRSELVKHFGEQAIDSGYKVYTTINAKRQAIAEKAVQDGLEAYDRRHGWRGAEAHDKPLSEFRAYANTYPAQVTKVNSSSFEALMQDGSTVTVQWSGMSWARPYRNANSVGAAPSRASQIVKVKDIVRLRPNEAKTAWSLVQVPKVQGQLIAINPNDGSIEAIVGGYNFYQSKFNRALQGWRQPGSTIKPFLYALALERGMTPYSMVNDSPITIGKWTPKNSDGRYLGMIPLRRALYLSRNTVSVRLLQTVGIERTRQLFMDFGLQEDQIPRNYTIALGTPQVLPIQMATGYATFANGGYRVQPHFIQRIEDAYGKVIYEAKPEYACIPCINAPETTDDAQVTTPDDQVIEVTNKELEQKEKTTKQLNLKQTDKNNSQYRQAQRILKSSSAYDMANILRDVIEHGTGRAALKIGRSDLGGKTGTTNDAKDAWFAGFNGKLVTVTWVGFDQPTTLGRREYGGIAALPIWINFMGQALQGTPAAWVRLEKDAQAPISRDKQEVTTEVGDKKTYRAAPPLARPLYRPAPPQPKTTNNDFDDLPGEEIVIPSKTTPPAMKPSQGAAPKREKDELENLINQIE
The experiment in a line: Bocillin-FL competition binding via gel filtration, A. baumannii PBP1a. To be noted: competition binding assay using Bocillin-FL via gel filtration; read-out: A. baumannii PBP1a Potency. Summed up: as §1

In brackets after ≈: the same amount, converted by molar mass.

Chain of A. baumannii PBP2 (D0C8Z9 whole entry): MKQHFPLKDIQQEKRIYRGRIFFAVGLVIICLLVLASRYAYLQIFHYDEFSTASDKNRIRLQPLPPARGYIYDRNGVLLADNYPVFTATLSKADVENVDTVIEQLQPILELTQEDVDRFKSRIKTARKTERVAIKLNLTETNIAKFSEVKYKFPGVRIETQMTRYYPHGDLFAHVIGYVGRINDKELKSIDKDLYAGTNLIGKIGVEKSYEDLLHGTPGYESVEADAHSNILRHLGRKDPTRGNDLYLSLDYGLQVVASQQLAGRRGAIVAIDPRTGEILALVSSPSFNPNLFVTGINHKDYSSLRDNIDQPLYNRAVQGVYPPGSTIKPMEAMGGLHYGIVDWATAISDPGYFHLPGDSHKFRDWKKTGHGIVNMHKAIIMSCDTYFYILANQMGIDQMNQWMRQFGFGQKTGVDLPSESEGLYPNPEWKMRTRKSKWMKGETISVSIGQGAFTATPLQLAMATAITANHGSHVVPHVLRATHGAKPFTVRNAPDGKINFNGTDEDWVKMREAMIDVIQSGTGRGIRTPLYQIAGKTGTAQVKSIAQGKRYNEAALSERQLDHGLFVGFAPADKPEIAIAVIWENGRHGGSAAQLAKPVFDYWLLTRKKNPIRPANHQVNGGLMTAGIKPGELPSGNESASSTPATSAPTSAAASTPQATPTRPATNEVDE

On to `CS(=O)(=O)N1CCN(C(=O)N[C@@H](C(=O)N[C@H]2Cc3ccc(F)c(C(=O)O)c3OB2O)c2ccc(P(=O)(O)O)c(F)c2)C1=O` (single isomer, unassigned) [Example 19], for which the MIC in assay [1] was over 128 µg/mL; in [2], over 128 µg/mL; in assay [3], over 128 µg/mL; in assay [4], 2 to 4 µg/mL (≈ 3.09 to 6.19 µM); in [5], over 128 µg/mL; in assay [6], over 128 µg/mL. The MIC is over 128 µg/mL in [7]; 32 to 64 µg/mL (≈ 49.5 to 99 µM) in assay [8]; 32 to 64 µg/mL (≈ 49.5 to 99 µM) in assay [9]; over 128 µg/mL in [10]; over 128 µg/mL in assay [11]; 32 to 64 µg/mL (≈ 49.5 to 99 µM) in [12]. Further, the figures for the MIC in [13], in assay [14] and in assay [15] were 8 to 16 µg/mL (≈ 12.4 to 24.8 µM), 32 to 64 µg/mL (≈ 49.5 to 99 µM) and over 128 µg/mL, respectively.

As to `CS(=O)(=O)N1CCN(C(=O)NC(C(=O)N[C@H]2Cc3cccc(C(=O)O)c3OB2O)c2ccc(P(=O)(O)O)c(O)c2)C1=O` (stereo partly drawn) [Example 17, (3R)-2-hydroxy-3-(2-(3-hydroxy-4-phosphonophenyl)-2-(3-(methylsulfonyl)-2-oxoimidazolidine-1-carboxamido)acetamido)-3,4-dihydro-2H-benzo[e][1,2]oxaborinine-8-carboxylic acid], the EC50 in [16] was 50 to 250 µM.

In the case of `O=C(O)c1c(F)ccc2c1OB(O)[C@@H](NC(=O)C(NC(=O)N1CCN(Cc3ccc(O)c(O)c3Cl)C(=O)C1=O)c1ccc(P(=O)(O)O)c(F)c1)C2` (stereo partly drawn) [Example 23, (3R)-3-(2-(4-(2-chloro-3,4-dihydroxybenzyl)-2,3-dioxopiperazine-1-carboxamido)-2-(3-fluoro-4-phosphonophenyl)acetamido)-7-fluoro-2-hydroxy-3,4-dihydro-2H-benzo[e][1,2]oxaborinine-8-carboxylic acid], the MIC in [1] was under 1 µg/mL; in assay [2], under 1 µg/mL; in [3] it was under 1 µg/mL; in [4] it was under 1 µg/mL; in assay [5] it was under 1 µg/mL; in assay [6] it was 8 to 16 µg/mL (≈ 10.6 to 21.3 µM). Besides, the MIC in [7], in assay [8], in assay [9], in [10], in [11] and in assay [12] was under 1 µg/mL in each case. The MIC in [13], in assay [14] and in [15] was under 1 µg/mL in each case. Further, the EC50 is under 10 µM in assay [16] and 10 to 50 µM in assay [17].

With `O=C(O)c1cccc2c1OB(O)[C@@H](NC(=O)C(NC(=O)N1CCN(Cc3ccc(O)c(O)c3Cl)C(=O)C1=O)c1ccc(P(=O)(O)O)cc1)C2` (stereo partly drawn) [Example 24, (3R)-3-(2-(4-(2-chloro-3,4-dihydroxybenzyl)-2,3-dioxopiperazine-1-carboxamido)-2-(4-phosphonophenyl)acetamido)-2-hydroxy-3,4-dihydro-2H-benzo[e][1,2]oxaborinine-8-carboxylic acid], the MIC in assay [1] is under 1 µg/mL; in assay [2], under 1 µg/mL; in assay [3], under 1 µg/mL; in assay [4] it was under 1 µg/mL; in assay [5] it was under 1 µg/mL; in assay [6] it was 8 to 16 µg/mL (≈ 11.2 to 22.3 µM). The MIC in assay [7] is under 1 µg/mL; in [8], under 1 µg/mL; in assay [9], under 1 µg/mL; in [10] it was 2 to 4 µg/mL (≈ 2.79 to 5.58 µM); in [11], under 1 µg/mL; in assay [12] it was under 1 µg/mL. For the same molecule, the MIC in [13], in [14] and in assay [15] was under 1 µg/mL in each case. In addition, the EC50 in assay [16] and in assay [17] was 10 to 50 µM in each case.

Turning to `O=C(O)c1c(F)ccc2c1OB(O)[C@@H](NC(=O)C(NC(=O)N1CCN(Cc3cc(F)c(O)c(O)c3Cl)C(=O)C1=O)c1ccc(P(=O)(O)O)cc1)C2` (stereo partly drawn) [Example 45, (3R)-3-(2-(4-(2-chloro-5-fluoro-3,4-dihydroxybenzyl)-2,3-dioxopiperazine-1-carboxamido)-2-(4-phosphonophenyl)acetamido)-7-fluoro-2-hydroxy-3,4-dihydro-2H-benzo[e][1,2]oxaborinine-8-carboxylic acid], the MIC in [1], in assay [2], in assay [3], in assay [4], in assay [5] and in [6] was under 1 µg/mL in each case. In addition, the MIC in [7], in [8], in assay [9], in assay [10], in [11] and in assay [12] was under 1 µg/mL each time. The MIC in assay [13], in assay [14] and in [15] was under 1 µg/mL in each case. Besides, the figures for the EC50 in assay [16] and in assay [17] were under 10 µM and 10 to 50 µM, respectively.

Take `O=C(O)c1c(F)ccc2c1OB(O)[C@@H](NC(=O)C(NC(=O)N1CCN(Cc3ccc(O)c(O)c3Cl)C1=O)c1ccc(P(=O)(O)O)cc1)C2` (stereo partly drawn) [Example 46, (3R)-3-(2-(3-(2-chloro-3,4-dihydroxybenzyl)-2-oxoimidazolidine-1-carboxamido)-2-(4-phosphonophenyl)acetamido)-7-fluoro-2-hydroxy-3,4-dihydro-2H-benzo[e][1,2]oxaborinine-8-carboxylic acid]: the MIC in [1] was under 1 µg/mL; in assay [4], under 1 µg/mL; in assay [5] it was 2 to 4 µg/mL (≈ 2.83 to 5.66 µM); in assay [6] it was 2 to 4 µg/mL (≈ 2.83 to 5.66 µM); in [8], under 1 µg/mL; in assay [9] it was under 1 µg/mL. The MIC in assay [10] is 2 to 4 µg/mL (≈ 2.83 to 5.66 µM); in assay [14], under 1 µg/mL. For the same molecule, the EC50 is 10 to 50 µM in assay [16] and under 10 µM in assay [17].

In the case of `O=C(N[C@@H](C(=O)N[C@H]1Cc2cccc(C(=O)O)c2OB1O)c1ccc(P(=O)(O)O)cc1)c1ccc(O)c(O)c1Cl` [Example 49, (R)-3-((R)-2-(2-chloro-3,4-dihydroxybenzamido)-2-(4-phosphonophenyl)acetamido)-2-hydroxy-3,4-dihydro-2H-benzo[e][1,2]oxaborinine-8-carboxylic acid], the MIC in [1] was under 1 µg/mL; in assay [2] it was over 128 µg/mL; in assay [3] it was over 128 µg/mL; in [4] it was under 1 µg/mL; in [5], under 1 µg/mL; in assay [6], 2 to 4 µg/mL (≈ 3.39 to 6.77 µM). Further, the MIC is over 128 µg/mL in [7]; under 1 µg/mL in assay [8]; 2 to 4 µg/mL (≈ 3.39 to 6.77 µM) in [9]; 2 to 4 µg/mL (≈ 3.39 to 6.77 µM) in [10]; over 128 µg/mL in assay [11]; under 1 µg/mL in [12]. In addition, the MIC in [13] is under 1 µg/mL; in assay [14], under 1 µg/mL; in assay [15], over 128 µg/mL. For the same molecule, the EC50 in [16] and in [17] was 10 to 50 µM each time.
